From patent US20150353495A1 (PORTOLA PHARMACEUTICALS, INC., priority 2010, published 2015) come the findings set out here.

One may read the IC50 as the concentration that inhibits the measured activity by half.

Type in all cases: biochemical
Experiment [1] concerns the target T1, JAK1 (Homo sapiens, UniProt P23458).
T1 construct: 5 μl of catalytic domain recombinant Kinase enzyme+Tyr peptide substrate (Invitrogen, CA); purchased Invitrogen
Kind of experiment: Z'-LYTE kinase assay JAK1. The procedure, abridged:
(§1)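 Z′-LYTE FRET, Tyr6 peptide, recombinant catalytic domain + ATP, 1 h RT, 1% DMSO final, duplicates; protease development 1 h RT; fluorescence read.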

In experiment [2] the target is T2, JAK2 (Homo sapiens, UniProt O60674).
T2 construct: 5 μl of catalytic domain recombinant Kinase enzyme+Tyr peptide substrate (Invitrogen, CA); purchased Invitrogen
T2 sequence (O60674 849-1124 limits assumed): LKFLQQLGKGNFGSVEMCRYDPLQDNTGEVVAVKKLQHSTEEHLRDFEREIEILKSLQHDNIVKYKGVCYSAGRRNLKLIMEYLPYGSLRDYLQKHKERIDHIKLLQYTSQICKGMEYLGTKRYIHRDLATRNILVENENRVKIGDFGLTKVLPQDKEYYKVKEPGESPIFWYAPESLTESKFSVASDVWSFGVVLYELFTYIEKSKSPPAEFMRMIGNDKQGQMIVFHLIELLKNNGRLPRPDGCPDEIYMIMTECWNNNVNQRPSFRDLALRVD
Kind of experiment: Z'-LYTE kinase assay JAK2. In short, it runs like this:
as §1

Experiment [3] has as its target T3, JAK3 (Homo sapiens, UniProt P52333).
T3 construct: 5 μl of catalytic domain recombinant Kinase enzyme+Tyr peptide substrate (Invitrogen, CA); purchased Invitrogen
Kind of experiment: Z'-LYTE kinase assay JAK3. The procedure, abridged: as §1

In experiment [4] the target is T4, TYK2 (Homo sapiens, UniProt P29597).
T4 construct: 5 μl of catalytic domain recombinant Kinase enzyme+Tyr peptide substrate (Invitrogen, CA); purchased Invitrogen
T4 sequence (P29597 897-1176 limits assumed): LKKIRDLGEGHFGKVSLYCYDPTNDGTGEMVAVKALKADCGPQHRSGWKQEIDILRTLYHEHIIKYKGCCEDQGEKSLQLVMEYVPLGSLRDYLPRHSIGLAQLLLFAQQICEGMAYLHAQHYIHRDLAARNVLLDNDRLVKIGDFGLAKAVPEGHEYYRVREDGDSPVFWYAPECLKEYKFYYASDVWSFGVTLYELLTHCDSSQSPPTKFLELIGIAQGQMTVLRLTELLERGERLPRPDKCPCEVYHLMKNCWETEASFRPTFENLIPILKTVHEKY
Kind of experiment: Z'-LYTE kinase assay TYK2. As for the experimental part: JAK and TYK2 tyrosine phosphorylation activity is measured using the Z′-LYTE™ Technology developed by Invitrogen Corporation (Carlsbad, Calif.). For JAK1, JAK2 and JAK3 the Z′-LYTE™ Kinase Assay Kit-Tyr6 Peptide (part number PV4122) was used. For TYK2 the Z′-LYTE™ Kinase Assay Kit-Tyr6 Peptide (part number PV3192) was used. The Z′-LYTE™ biochemical assay employs a fluorescence resonance energy transfer (FRET) coupled-enzyme format and is based on the differential sensitivity of phosphorylated and non-phosphorylated peptides to proteolitic cleavage. The assay uses a synthetic peptide substrate that is labelled with a donor fluorophore (coumarin) and an acceptor fluorophore (fluorescein) that make up a FRET pair. In the primary reaction (the Kinase Reaction), the kinase transfers the γ-phosphate of ATP to a single tyrosine residue on the substrate, while the presence of a kinase inhibitor in the primary reaction suppresses phosphorylation. In the secondary reaction (the Development Reaction), a site-specific protease (the Development Reagent) is added. The development buffer quenches the Kinase Reaction, while the protease recognizes and cleaves non-phosphorylated Z′-LYTE™ peptide substrate. Cleavage disrupts FRET between the donor and acceptor fluorophores on the non-phosphoryleted substrate, while uncleaved, phosphorylated substrate maintains FRET.
To test the ability of candidate molecules to inhibit JAK tyrosine phosphorylation activity, molecules are reconstituted in 100% DMSO and serially diluted 1:10 in polypropylene v-bottom microtiter plates. The candidate molecules are then diluted 1:25 into kinase buffer and 2.5 μl transferred into duplicate wells of a 384 well low volume black microtiter assay plate (Corning, USA). The final DMSO concentration in the assay is 1%. The kinase reaction contains 2.5 μl of a candidate molecule, 5 μl of catalytic domain recombinant Kinase enzyme+Tyr peptide substrate (Invitrogen, CA) and 2.5 μl ATP (Invitrogen, CA). The kinase reaction is allowed to procede for 1 hour at room temperature. The protease reaction is initiated by the addition of 5 μl Development Reagent (Invitrogen, CA). After 1 hour incubation at room temperature the fluorescence is measured using a FlexStation plate reader (Molecular Devices, Sunnyvale, Calif.). The reader settings used are as follows: Fluorescence mode, endpoint, top read, excitation 400 nm, emission 445 nm and 520 nm, Auto Cutoff 435 nm and 515 nm, PMT sensitivity high, 6 reads per well Inhibition of JAK kinase activity is calculated as the percent phosphorylation of substrate in the presence of inhibitor compared to the percent phosphorylation of substrate in the absence of inhibitor. IC50's were derived using Xlfit 4.3 (IDBS, UK), 4 parameter logistic model 205: Y=(A+4B-A)/(1+((C/x)AD)))).

T3 sequence (P52333 822-1111 limits assumed): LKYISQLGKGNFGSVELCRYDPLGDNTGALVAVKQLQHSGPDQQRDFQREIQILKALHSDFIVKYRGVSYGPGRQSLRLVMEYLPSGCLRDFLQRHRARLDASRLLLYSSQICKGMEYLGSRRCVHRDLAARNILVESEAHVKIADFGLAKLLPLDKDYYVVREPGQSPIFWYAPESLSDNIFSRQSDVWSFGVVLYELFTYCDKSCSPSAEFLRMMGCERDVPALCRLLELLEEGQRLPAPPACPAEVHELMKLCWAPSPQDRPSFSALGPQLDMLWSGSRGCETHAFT
T1 sequence (P23458 875-1153 limits assumed): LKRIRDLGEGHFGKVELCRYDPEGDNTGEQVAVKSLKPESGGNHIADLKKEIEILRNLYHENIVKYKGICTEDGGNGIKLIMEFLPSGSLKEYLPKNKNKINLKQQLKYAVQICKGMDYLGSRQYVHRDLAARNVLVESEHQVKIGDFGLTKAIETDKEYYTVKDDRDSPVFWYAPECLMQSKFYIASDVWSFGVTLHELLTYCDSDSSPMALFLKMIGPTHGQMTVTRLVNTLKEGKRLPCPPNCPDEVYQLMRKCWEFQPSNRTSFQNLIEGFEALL

Regarding `CCC(=O)N1CCC(c2ccc(Nc3cc(NCc4cccnc4)c(C(N)=O)cn3)cc2)CC1` [Example 187, 6-(4-(1-propionylpiperidin-4-yl)phenylamino)-4-(pyridin-3-ylmethylamino)nicotinamide], the IC50 is 100 to 1000 nM in experiment [1], 100 to 1000 nM in experiment [2], 10 to 100 nM in experiment [3] and 100 to 1000 nM in experiment [4].

On to `CCC(=O)N1CCC(c2ccc(Nc3cc(NCc4cncc(F)c4)c(C(N)=O)cn3)cc2)CC1` [Example 188, 4-((5-fluoropyridin-3-yl)methylamino)-6-(4-(1-propionylpiperidin-4-yl)phenylamino)nicotinamide], for which the concentration for half-maximal inhibition (IC50) in experiment [1] lay in the range of 100 to 1000 nM; in experiment [2] it was 10 to 100 nM; in experiment [3] it was 1 to 10 nM; in experiment [4], 100 to 1000 nM.

As for `CCC(=O)N1CCC(c2ccc(Nc3cc(NCC4(O)CCCC4)c(C(N)=O)cn3)cc2)CC1` [Example 193, 4-((1-hydroxycyclopentyl)methylamino)-6-(4-(1-propionylpiperidin-4-yl)phenylamino)nicotinamide], the half-maximal inhibitory concentration (IC50) in experiment [1] is above 1000 nM; in experiment [2], 100 to 1000 nM; in experiment [3], 10 to 100 nM; in experiment [4], 100 to 1000 nM.

Take `CCC(=O)N1CCC(c2ccc(Nc3cc(NCc4cc(F)cc(F)c4)c(C(N)=O)cn3)cc2)CC1` [Example 195, 4-(3,5-difluorobenzylamino)-6-(4-(1-propionylpiperidin-4-yl)phenylamino)nicotinamide]: the IC50 was above 1000 nM in experiment [1], 10 to 100 nM in experiment [2], 1 to 10 nM in experiment [3] and above 1000 nM in experiment [4].

As to `CCC(=O)N1CCC(c2ccc(Nc3cc(NCc4cccc(F)c4F)c(C(N)=O)cn3)cc2)CC1` [Example 196, 4-(2,3-difluorobenzylamino)-6-(4-(1-propionylpiperidin-4-yl)phenylamino)nicotinamide], the IC50 in experiment [1] fell in the range of 100 to 1000 nM; in experiment [2], 10 to 100 nM; in experiment [3], 1 to 10 nM; in experiment [4] it was 100 to 1000 nM.

Turning to `CCC(=O)N1CCC(c2ccc(Nc3cc(NCc4cccs4)c(C(N)=O)cn3)cc2)CC1` [Example 197, 6-(4-(1-propionylpiperidin-4-yl)phenylamino)-4-(thiophen-2-ylmethylamino)nicotinamide], the IC50 in experiment [1] was in the range of 100 to 1000 nM; in experiment [2] it was 100 to 1000 nM; in experiment [3] it was 1 to 10 nM; in experiment [4], 100 to 1000 nM.

On to `CCC(=O)N1CCC(c2ccc(Nc3cc(NCc4ccccc4)c(C(N)=O)cn3)cc2)CC1` [Example 198, 4-(benzylamino)-6-(4-(1-propionylpiperidin-4-yl)phenylamino)nicotinamide], for which the IC50 in experiment [1] is above 1000 nM; in experiment [2] it was 100 to 1000 nM; in experiment [3] it was 1 to 10 nM; in experiment [4], 100 to 1000 nM.

Consider `CCC(=O)N1CCC(c2ccc(Nc3cc(N[C@H](C)c4ccccc4)c(C(N)=O)cn3)cc2)CC1` [Example 199, (R)-4-(1-phenylethylamino)-6-(4-(1-propionylpiperidin-4-yl)phenylamino)nicotinamide], for which the IC50 in experiment [1] was above 1000 nM; in experiment [2], 100 to 1000 nM; in experiment [3], 10 to 100 nM; in experiment [4], above 1000 nM.

On to `CC(=O)Nc1cccc(Nc2cc(NCc3cccs3)c(C(N)=O)cn2)c1` [Example 222, 6-(3-acetamidophenylamino)-4-(thiophen-2-ylmethylamino)nicotinamide], for which the IC50 is 100 to 1000 nM in experiment [1], 100 to 1000 nM in experiment [2], 1 to 10 nM in experiment [3] and 10 to 100 nM in experiment [4].

As for `CC(=O)N1CCN(c2ccc(Nc3cc(NC(C)C)c(C(N)=O)cn3)cc2)CC1` [Example 234, 6-(4-(4-acetylpiperazin-1-yl)phenylamino)-4-(isopropylamino)nicotinamide], the IC50 in experiment [1] is above 1000 nM; in experiment [2] it was above 1000 nM; in experiment [3], 100 to 1000 nM; in experiment [4] it was 100 to 1000 nM.
